From US10689362B2, “Quinoxaline compounds as type III receptor tyrosine kinase inhibitors” (Development Center for Biotechnology, priority 2016, dated 2020)

Experiments:
[1] = biological target: CSF-1R kinase (Homo sapiens (Human), UniProt P07333); assay: CSF-1R kinase assay (AlphaScreen); type: biochemical; details: class symbol
Procedure: Inhibition of CSF-1R kinase activity by a test compound disclosed herein was estimated by AlphaScreen (PerkinElmer). […] Reactions were incubated at 30° C. for 45 min and stopped by adding 5 μL of 50 mM EDTA. Analysis of resulting product using an AlphaScreen kit, and counted with Enspire Alpha (PerkinElmer). […] The IC50 values of quinoxaline compounds of this invention against CSF-1R kinase were determined using the GraphPad Prism 5 software.

[2] = biological target: c-KIT kinase (Homo sapiens (Human), UniProt P10721); assay: c-KIT kinase assay (radiometric); type: biochemical; details: class symbol
Outline: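 Recombinant c-Kit (20 ng) with 2 μg Poly-(Glu4:Tyr1) in MOPS pH 7.0 buffer with MgCl2/MnCl2, 10 μM ATP plus [^33P]-ATP, 4% DMSO final, 60 min at 30° C. Stopped with phosphoric acid, filter-captured and scintillation counted; IC50 from curve fit.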

[3] = biological target: FLT3 kinase (Homo sapiens (Human), UniProt P36888); assay: FLT3 kinase assay (radiometric); type: biochemical
Outline: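 Recombinant FLT3 (5 ng) phosphorylating poly(Glu4:Tyr1) (2 μg) with 10 μM ATP plus [^33P]-ATP in MOPS pH 7.0 buffer, 4% DMSO final, 60 min at 30° C. Reaction stopped with phosphoric acid, filter-captured and scintillation-counted; IC50 derived from dose-response.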

[4] = biological target: PDGFRβ kinase (Homo sapiens (Human), UniProt P09619); assay: PDGFRβ kinase assay (radiometric); type: biochemical
Outline: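 Radiometric assay: recombinant PDGFRβ with poly(Glu4:Tyr1) in MOPS pH 7.0 buffer containing Mg2+/Mn2+, 10 μM ATP plus [33P]-ATP, and compound at 4% DMSO final. Incubated 60 min at 30° C, stopped with phosphoric acid, filter-captured and scintillation-counted. IC50 from curve fitting.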

[5] = system: CSF-1-dependent M-NFS-60 mouse myeloid leukemia cell; assay: M-NFS-60 cell proliferation assay (CellTiter-96); type: cell-based; details: Cytotoxicity, M-NFS-60 cells, 72 hours
Outline: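 CSF-1-dependent M-NFS-60 cells seeded at 2000 cells/well, settled overnight at 37 °C, 5% CO2, then exposed to increasing compound concentrations for 72 h. Viability read by CellTiter 96 AQueous One reagent (4 h) at 490 nm absorbance.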

[6] = system: MV4-11 human acute myeloid leukemia cell with FLT3-ITD mutation; assay: MV4-11 cell proliferation assay (CellTiter-96); type: cell-based; details: Cytotoxicity, MV4-11 cells, 72 hours
Outline: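 MV4-11 cells (FLT3-ITD, FLT3-dependent growth) seeded at 6500 cells/well, incubated overnight at 37° C., 5% CO2, then exposed to increasing compound concentrations for 72 hours. Viability read by CellTiter96 AQueous One reagent (4 hours), absorbance at 490 nm.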

[7] = system: Kasumi-1 human acute myeloid leukemia cell with c-KIT N822K activating mutation; assay: Kasumi-1 cell proliferation assay (CellTiter-96); type: cell-based; details: Cytotoxicity, Kasumi-1 cells, 72 hours
Outline: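 Kasumi-1 cells, seeded at 64000 cells/well and incubated overnight at 37 °C, were exposed to increasing compound concentrations for 72 h. Viability was measured by CellTiter96 AQueous One reagent (4 h) and absorbance at 490 nm.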

[8] = system: THP-1 human acute monocytic leukemia cell harboring NRAS G12D mutation; assay: THP-1 cell proliferation assay (counter screen, CellTiter-96); type: cell-based; details: Cytotoxicity, THP-1 cells (counter screen), 72 hours
Outline: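 THP-1 cells, RTK-independent owing to NRAS G12D, seeded at 5000/well, incubated overnight at 37 °C/5% CO2, then exposed to increasing compound concentrations for 72 h. CellTiter96 AQueous One reagent added for 4 h; viability from absorbance at 490 nm.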

[9] = system: osteoclast precursors (osteoclast differentiation); assay: Osteoclast tartrate-resistant acid phosphatase assay; type: cell-based; details: 168 h, at 1 μM treatment, 7 days, RANKL and M-CSF, read-out: inhibition activity against osteoclast differentiation
Outline: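 Differentiation inhibition was scored at 1 μM compound in duplicate, using supernatant TRAP activity read at 550 nm with an acid phosphatase kit.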

PDGFRβ kinase, sequence (P09619 33-1106): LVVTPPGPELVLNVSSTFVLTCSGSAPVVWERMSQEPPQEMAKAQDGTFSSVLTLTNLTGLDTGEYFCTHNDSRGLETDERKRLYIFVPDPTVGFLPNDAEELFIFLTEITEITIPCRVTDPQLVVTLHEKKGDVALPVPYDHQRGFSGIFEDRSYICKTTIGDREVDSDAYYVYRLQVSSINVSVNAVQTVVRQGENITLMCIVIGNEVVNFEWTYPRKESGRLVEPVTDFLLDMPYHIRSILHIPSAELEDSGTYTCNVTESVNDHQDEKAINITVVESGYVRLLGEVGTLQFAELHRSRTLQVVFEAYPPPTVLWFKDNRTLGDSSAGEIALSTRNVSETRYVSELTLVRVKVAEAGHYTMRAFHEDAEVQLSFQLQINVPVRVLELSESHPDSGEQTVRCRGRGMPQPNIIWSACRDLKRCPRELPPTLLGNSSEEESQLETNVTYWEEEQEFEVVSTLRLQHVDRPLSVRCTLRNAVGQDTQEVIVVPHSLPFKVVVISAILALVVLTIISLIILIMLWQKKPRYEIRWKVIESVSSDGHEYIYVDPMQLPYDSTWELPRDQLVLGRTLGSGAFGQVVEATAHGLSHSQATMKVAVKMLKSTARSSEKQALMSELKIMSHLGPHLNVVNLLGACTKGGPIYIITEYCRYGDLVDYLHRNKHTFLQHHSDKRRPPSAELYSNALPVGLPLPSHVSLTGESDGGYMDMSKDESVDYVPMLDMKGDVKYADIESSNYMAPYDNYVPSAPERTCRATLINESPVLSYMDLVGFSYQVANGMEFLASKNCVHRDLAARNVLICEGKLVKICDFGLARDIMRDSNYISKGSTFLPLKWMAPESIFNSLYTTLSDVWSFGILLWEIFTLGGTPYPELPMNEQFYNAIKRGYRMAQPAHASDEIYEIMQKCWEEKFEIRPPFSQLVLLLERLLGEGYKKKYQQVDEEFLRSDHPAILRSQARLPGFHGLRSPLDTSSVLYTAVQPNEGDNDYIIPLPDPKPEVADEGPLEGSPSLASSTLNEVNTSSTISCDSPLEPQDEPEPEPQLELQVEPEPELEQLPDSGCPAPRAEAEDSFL
CSF-1R kinase, sequence (P07333 20-972): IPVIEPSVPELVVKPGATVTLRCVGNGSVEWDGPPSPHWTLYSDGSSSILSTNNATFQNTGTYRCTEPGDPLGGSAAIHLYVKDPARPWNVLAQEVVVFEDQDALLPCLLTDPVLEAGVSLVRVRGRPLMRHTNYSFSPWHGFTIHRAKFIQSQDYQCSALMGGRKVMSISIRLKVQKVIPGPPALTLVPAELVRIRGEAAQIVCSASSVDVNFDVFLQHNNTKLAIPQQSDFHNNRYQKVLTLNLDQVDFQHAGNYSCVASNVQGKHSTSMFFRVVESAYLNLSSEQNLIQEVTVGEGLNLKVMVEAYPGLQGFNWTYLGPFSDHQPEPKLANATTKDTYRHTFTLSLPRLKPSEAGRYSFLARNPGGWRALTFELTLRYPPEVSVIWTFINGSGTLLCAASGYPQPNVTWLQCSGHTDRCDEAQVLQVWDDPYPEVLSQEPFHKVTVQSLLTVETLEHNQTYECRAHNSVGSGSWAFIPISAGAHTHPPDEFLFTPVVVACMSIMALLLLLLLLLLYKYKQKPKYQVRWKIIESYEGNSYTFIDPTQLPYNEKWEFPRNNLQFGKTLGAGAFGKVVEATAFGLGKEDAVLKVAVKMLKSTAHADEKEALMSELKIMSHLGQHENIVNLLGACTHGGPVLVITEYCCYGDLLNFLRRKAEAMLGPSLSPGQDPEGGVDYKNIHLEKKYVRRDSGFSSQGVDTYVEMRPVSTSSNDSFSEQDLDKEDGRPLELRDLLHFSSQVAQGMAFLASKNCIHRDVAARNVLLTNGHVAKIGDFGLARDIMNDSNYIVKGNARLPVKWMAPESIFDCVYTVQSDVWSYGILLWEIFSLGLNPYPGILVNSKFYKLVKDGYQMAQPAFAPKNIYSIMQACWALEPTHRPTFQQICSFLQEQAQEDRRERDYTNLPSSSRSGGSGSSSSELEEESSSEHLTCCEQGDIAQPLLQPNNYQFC
FLT3 kinase, sequence (P36888 27-993): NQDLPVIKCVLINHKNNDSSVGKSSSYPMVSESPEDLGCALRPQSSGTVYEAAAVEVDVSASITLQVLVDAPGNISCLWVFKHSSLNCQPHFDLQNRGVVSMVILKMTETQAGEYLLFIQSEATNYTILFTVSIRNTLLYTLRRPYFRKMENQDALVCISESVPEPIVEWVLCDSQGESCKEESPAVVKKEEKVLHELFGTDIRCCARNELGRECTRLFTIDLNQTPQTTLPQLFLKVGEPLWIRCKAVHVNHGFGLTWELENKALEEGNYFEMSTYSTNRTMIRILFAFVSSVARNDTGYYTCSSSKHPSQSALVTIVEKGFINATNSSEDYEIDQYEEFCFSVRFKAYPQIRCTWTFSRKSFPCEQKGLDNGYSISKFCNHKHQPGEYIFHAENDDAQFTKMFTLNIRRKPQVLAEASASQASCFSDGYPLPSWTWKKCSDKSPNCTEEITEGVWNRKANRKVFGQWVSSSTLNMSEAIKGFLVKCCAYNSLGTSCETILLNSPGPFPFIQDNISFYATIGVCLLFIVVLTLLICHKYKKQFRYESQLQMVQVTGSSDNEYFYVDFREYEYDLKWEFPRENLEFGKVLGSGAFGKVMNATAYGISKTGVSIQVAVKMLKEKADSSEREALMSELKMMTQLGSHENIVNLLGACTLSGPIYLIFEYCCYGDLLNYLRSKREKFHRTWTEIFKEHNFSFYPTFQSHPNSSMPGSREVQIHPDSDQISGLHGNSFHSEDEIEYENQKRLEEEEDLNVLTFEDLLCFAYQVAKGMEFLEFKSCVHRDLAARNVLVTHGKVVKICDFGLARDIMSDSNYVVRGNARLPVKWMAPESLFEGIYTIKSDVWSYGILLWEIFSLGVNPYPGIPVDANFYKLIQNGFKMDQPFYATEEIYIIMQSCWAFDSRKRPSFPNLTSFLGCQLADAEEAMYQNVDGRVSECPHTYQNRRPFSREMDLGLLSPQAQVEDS
c-KIT kinase, sequence (P10721 26-976): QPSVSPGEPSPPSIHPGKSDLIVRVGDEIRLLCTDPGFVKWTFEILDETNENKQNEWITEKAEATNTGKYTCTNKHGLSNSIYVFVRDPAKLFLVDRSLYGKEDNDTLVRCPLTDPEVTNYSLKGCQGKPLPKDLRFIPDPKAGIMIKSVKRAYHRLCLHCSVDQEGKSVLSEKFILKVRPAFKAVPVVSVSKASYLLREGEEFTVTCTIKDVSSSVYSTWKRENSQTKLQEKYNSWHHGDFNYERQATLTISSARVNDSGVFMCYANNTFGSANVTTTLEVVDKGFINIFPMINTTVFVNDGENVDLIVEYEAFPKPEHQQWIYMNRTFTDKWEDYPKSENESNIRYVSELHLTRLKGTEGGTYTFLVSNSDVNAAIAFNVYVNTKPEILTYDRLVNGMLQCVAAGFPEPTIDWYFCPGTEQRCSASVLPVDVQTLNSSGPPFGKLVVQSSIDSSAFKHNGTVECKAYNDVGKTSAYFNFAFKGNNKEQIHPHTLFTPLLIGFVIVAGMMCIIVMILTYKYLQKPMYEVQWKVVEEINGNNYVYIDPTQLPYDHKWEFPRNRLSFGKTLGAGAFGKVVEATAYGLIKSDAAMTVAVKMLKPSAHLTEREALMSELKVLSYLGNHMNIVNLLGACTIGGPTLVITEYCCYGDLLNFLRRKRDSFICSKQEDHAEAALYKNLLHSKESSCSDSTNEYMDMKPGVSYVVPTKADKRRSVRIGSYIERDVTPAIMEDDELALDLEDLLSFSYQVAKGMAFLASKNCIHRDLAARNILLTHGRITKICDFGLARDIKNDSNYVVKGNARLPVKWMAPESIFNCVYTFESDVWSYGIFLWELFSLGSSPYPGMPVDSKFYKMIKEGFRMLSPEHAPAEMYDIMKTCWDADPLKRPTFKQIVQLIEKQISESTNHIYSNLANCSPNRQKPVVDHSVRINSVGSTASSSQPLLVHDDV

| IC50 [1] [nM] | IC50 [2] [nM] | IC50 ([3]; bound) [nM] | IC50 ([4]; bound) [nM] | IC50 ([3]; class symbol) [nM] | IC50 ([4]; class symbol) [nM] | SMILES | IC50 [5] [nM] | IC50 [6] [nM] | IC50 [7] [nM] | IC50 [8] [nM] | inhibition at 1 µM [9] [%] |
| --- | --- | --- | --- | --- | --- | --- | --- | --- | --- | --- | --- |
| < 100 | 100 to 300 | > 1000 | > 1000 |  |  | CCn1cc(COc2ccc(Nc3ccc4ncc(N5CCOCC5)nc4c3C#N)cc2OC)cn1 [Example 116, 6-((3-methoxy-4-((1-ethyl-1H-pyrazol-4-yl)methoxy)phenyl)amino)-3-morpholinoquinoxaline-5-carbonitrile] | < 300 | 1000 to 10000 | 300 to 1000 | > 10000 | > 50 |
| < 100 | < 100 | > 1000 | > 1000 |  |  | COc1ccc(COc2ccc(Nc3ccc4ncc(N5CCC5)nc4c3C#N)cc2OC)cc1 [Example 83, 3-(azetidin-1-yl)-6-((3-methoxy-4-((4-methoxybenzyl)oxy)phenyl)amino)quinoxaline-5-carbonitrile] | < 300 | > 10000 | < 300 | > 10000 | > 50 |
| < 100 | < 100 | > 1000 | > 1000 |  |  | CCCc1ccc(COc2ccc(Nc3ccc4ncc(N5CCOCC5)nc4c3C#N)cc2OC)cn1 [Example 98, 6-((3-methoxy-4-((6-propylpyridin-3-yl)methoxy)phenyl)amino)-3-morpholinoquinoxaline-5-carbonitrile] | < 300 | 1000 to 10000 | < 300 | > 10000 | > 50 |
| < 100 | 100 to 300 | > 1000 | > 1000 |  |  | COCCN1CCN(c2cnc3ccc(Nc4ccc(OCc5ccc(OC)nc5)c(OC)c4)c(C#N)c3n2)CC1 [Example 97, 6-((3-methoxy-4-((6-methoxypyridin-3-yl)methoxy)phenyl)amino)-3-(4-(2-methoxyethyl)piperazin-1-yl)quinoxaline-5-carbonitrile] | < 300 | 1000 to 10000 | 300 to 1000 | > 10000 | > 50 |
| < 100 | 300 to 1000 |  | > 1000 | 300 to 1000 |  | COc1ccc(COc2ccc(Nc3ccc4ncc(N5CCOCC5)nc4c3C#N)c(F)c2)cc1 [Example 53, 6-((2-fluoro-4-((4-methoxybenzyl)oxy)phenyl)amino)-3-morpholinoquinoxaline-5-carbonitrile] | 300 to 1000 | < 300 | 1000 to 10000 | > 10000 | > 50 |
| < 100 | < 100 | > 1000 |  |  | 100 to 300 | CCc1ccc(COc2ccc(Nc3ccc4ncc(N5CCOCC5)nc4c3C#N)cc2OC)cc1 [Example 33, 6-((4-((4-ethylbenzyl)oxy)-3-methoxyphenyl)amino)-3-morpholinoquinoxaline-5-carbonitrile] | < 300 | 1000 to 10000 | < 300 | > 10000 | > 50 |
| < 100 | < 100 | > 1000 |  |  | 300 to 1000 | COc1cc(Nc2ccc3ncc(N4CCOCC4)nc3c2C#N)ccc1OCc1cnn(CC2CC2)c1 [Example 141, 6-((4-((1-(cyclopropylmethyl)-1H-pyrazol-4-yl)methoxy)-3-methoxyphenyl)amino)-3-morpholinoquinoxaline-5-carbonitrile] | < 300 | 1000 to 10000 | < 300 | > 10000 | > 50 |

More lines, now with the values behind:

| SMILES | IC50 [1] [nM] | IC50 [2] [nM] | IC50 ([3]; bound) [nM] | IC50 ([4]; bound) [nM] | IC50 ([3]; class symbol) [nM] | IC50 ([4]; class symbol) [nM] | IC50 [5] [nM] | IC50 [6] [nM] | IC50 [7] [nM] | IC50 [8] [nM] | inhibition at 1 µM [9] [%] |
| --- | --- | --- | --- | --- | --- | --- | --- | --- | --- | --- | --- |
| COc1cc(Nc2ccc3ncc(N4CCN(C)CC4)nc3c2C#N)ccc1OCc1cccc(C#N)c1 [Example 78, 6-((4-((3-cyanobenzyl)oxy)-3-methoxyphenyl)amino)-3-(4-methylpiperazin-1-yl)quinoxaline-5-carbonitrile] | < 100 | 100 to 300 | > 1000 | > 1000 |  |  | < 300 | > 10000 | 300 to 1000 | > 10000 | > 50 |
| COc1cc(Nc2ccc3ncc(N4CCOCC4)nc3c2C#N)ccc1OCc1cccc(C#N)c1 [Example 65, 6-((4-((3-cyanobenzyl)oxy)-3-methoxyphenyl)amino)-3-morpholinoquinoxaline-5-carbonitrile] | < 100 | 100 to 300 | > 1000 | > 1000 |  |  | < 300 | > 10000 | > 10000 | > 10000 | > 50 |
| COc1cc(Nc2ccc3ncc(N4CC(N(C)C)C4)nc3c2C#N)ccc1OCc1ccc(C)nc1 [Example 136, 3-(3-(dimethylamino)azetidin-1-yl)-6-((3-methoxy-4-((6-methylpyridin-3-yl)methoxy)phenyl)amino)quinoxaline-5-carbonitrile] | < 100 | < 100 | > 1000 | > 1000 |  |  | 300 to 1000 | 1000 to 10000 | 1000 to 10000 | > 10000 | > 50 |
| COc1cc(Nc2ccc3ncc(N4CCOCC4)nc3c2C#N)ccc1OCc1ccc(CF)nc1 [Example 110, 6-((4-((6-(fluoromethyl)pyridin-3-yl)methoxy)-3-methoxyphenyl)amino)-3-morpholinoquinoxaline-5-carbonitrile] | < 100 | 100 to 300 | > 1000 | > 1000 |  |  | < 300 | 1000 to 10000 | 1000 to 10000 | > 10000 | > 50 |
| COc1ccc(COc2ccc(Nc3ccc4ncc(N5CCOCC5)nc4c3C#N)cc2OC)nc1 [Example 132, 6-((3-methoxy-4-((5-methoxypyridin-2-yl)methoxy)phenyl)amino)-3-morpholinoquinoxaline-5-carbonitrile] | < 100 | 300 to 1000 | > 1000 | > 1000 |  |  | 300 to 1000 | > 10000 | > 10000 | > 10000 | > 50 |
| COc1ccc(COc2ccc(Nc3ccc4ncc(N5CCNCC5)nc4c3C#N)cc2OC)cc1 [Example 90, 6-((3-methoxy-4-((4-methoxybenzyl)oxy)phenyl)amino)-3-(piperazin-1-yl)quinoxaline-5-carbonitrile] | < 100 | < 100 | > 1000 | > 1000 |  |  | < 300 | > 10000 | 300 to 1000 | > 10000 | > 50 |
| COc1ccc(COc2ccc(Nc3ccc4ncc(N5CCOCC5)nc4c3)cc2OC)cc1 [Example 24, N-(3-methoxy-4-((4-methoxybenzyl)oxy)phenyl)-3-morpholinoquinoxalin-6-amine] | < 100 | < 100 | > 1000 | > 1000 |  |  | < 300 | 1000 to 10000 | < 300 | > 10000 | > 50 |
| COc1cc(Nc2ccc3ncc(N4CCOCC4)nc3c2C#N)ccc1OCc1ccc(C#N)cc1 [Example 64, 6-((4-((4-cyanobenzyl)oxy)-3-methoxyphenyl)amino)-3-morpholinoquinoxaline-5-carbonitrile] | < 100 | < 100 | > 1000 | > 1000 |  |  | < 300 | 1000 to 10000 | 300 to 1000 | > 10000 | > 50 |
